Test results reported in paper PMC11191095, “QSAR Reveals Decreased Lipophilicity of Polar Residues Determines the Selectivity of Antimicrobial Peptide Activity” (ACS Omega, 2024).
Where a SMILES comes first, the peptide text is derived from it.

Assays:
Experiment in all cases: microbe, parasite or virus in culture
C. auris TDG 1912 = format: cell-based, Candida auris; settings: C. auris TDG 1912
Procedure, shortened: (§1)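 Peptides 128→2 μg/mL, 2-fold series; inoculum ~5 × 10^5 CFU/mL from overnight culture (OD600 0.01, mixed 1:1). MHB non-cation-adjusted for bacteria, RPMI 1640 + 2% glucose for fungi. 37 °C, 20 h, OD600. MIC50/MIC90 at 50%/90% inhibition; n ≥ 3.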

P. aeruginosa PAO1 = format: cell-based, Pseudomonas aeruginosa; settings: P. aeruginosa PAO1 (S); shown in µM
Description: (§2) Antimicrobial activity was evaluated against a panel of 18 pathogens consisting of eight Gram-negative strains (E. coli NCTC 12923, E. coli LEC001, Pseudomonas aeruginosa PAO1, P. aeruginosa NCTC 13437, Acinetobacter baumannii ATCC 17978, A. baumannii AYE, Klebsiella pneumoniae M6, K. pneumoniae NCTC 13368), four Gram-positive strains (Staphylococcus aureus ATCC 9144, S. aureus NCTC 13616, S. aureus USA300, S. aureus 1199B) and six fungi (Candida auris TDG 1912, C. albicans NCPF 8018, C. krusei NCPF 3876, C. tropicalis NCPF 8760, and C. parapsilosis NCPF 3209). Pathogens were grown in noncation adjusted Mueller Hinton broth (MHB, for bacteria) or Roswell Park Memorial Institute (RPMI 1640) + 2% glucose (for fungi) at 37 °C with 180 rpm shaking and maintained on solid media (tryptic soy agar for bacteria and Sabouraud dextrose agar for fungi). For an antibiogram, see Suppl.
(§3) The 46 peptides were serially diluted (128 to 2 μg/mL) in media down polypropylene 96-well plates. Bacteria or fungi, diluted from an overnight culture to an OD600 of 0.01, were added to the serially diluted peptides at a 1:1 ratio resulting in a starting cell density of ∼5 × 10^5 CFU/mL. Plates were incubated at 37 °C for 20 h, and the optical density was determined spectrophotometrically at 600 nm. Minimum inhibition concentrations (MICs) were determined from a minimum of three biological repeats and are reported in μg/mL as well as μM. […] The MIC50 or MIC90 is defined as the lowest peptide concentration that results in 50% or 90% growth inhibition over a 20 h treatment period, respectively.

P. aeruginosa NCTC 13437 = format: cell-based, Pseudomonas aeruginosa; settings: P. aeruginosa NCTC 13437 (R)
Description: as §2, §3

S. aureus (MRSA) USA300 = format: cell-based, Staphylococcus aureus; settings: S. aureus (MRSA) USA300 (R)
Procedure, shortened: as §1

[1] = system: S. aureus (MRSA) NCTC 13616; format: cell-based, Staphylococcus aureus; settings: S. aureus (MRSA) NCTC 13616 (R)
Procedure, shortened: as §1

[2] = system: S. aureus (MSSA) ATCC 9144; format: cell-based, Staphylococcus aureus; settings: S. aureus (MSSA) ATCC 9144 (S); shown in µM
Procedure, shortened: as §1

S. aureus (MRSA) 1199B = format: cell-based, Staphylococcus aureus; settings: S. aureus (MRSA) 1199B (R)
Procedure, shortened: as §1

A. baumannii ATCC 17978 = format: cell-based, Acinetobacter baumannii; settings: A. baumannii ATCC 17978 (S); shown in µM
Procedure, shortened: as §1

A. baumannii AYE = format: cell-based, Acinetobacter baumannii; settings: A. baumannii AYE (R); shown in µM
Procedure, shortened: as §1

K. pneumoniae NCTC 13368 = format: cell-based, Klebsiella pneumoniae; settings: K. pneumoniae NCTC 13368 (R)
Description: as §2, §3

K. pneumoniae M6 = format: cell-based, Klebsiella pneumoniae; settings: K. pneumoniae M6 (S)
Description: as §2, §3

C. glabrata NCPF 8018 = format: cell-based; settings: C. glabrata NCPF 8018
Procedure, shortened: as §1

C. krusei NCPF 3876 = format: cell-based; settings: C. krusei NCPF 3876
Procedure, shortened: as §1

[3] = system: C. parapsilosis NCPF 3209; format: cell-based; settings: C. parapsilosis NCPF 3209
Procedure, shortened: as §1

C. tropicalis NCPF 8760 = format: cell-based; settings: C. tropicalis NCPF 8760
Procedure, shortened: as §1

C. albicans NCPF 3281 = format: cell-based; settings: C. albicans NCPF 3281
Procedure, shortened: as §1

E. coli LEC001 = format: cell-based, Escherichia coli; settings: E. coli LEC001 (R); shown in µM
Procedure, shortened: as §1

E. coli NCTC 12923 = format: cell-based, Escherichia coli; settings: E. coli NCTC 12923 (S); shown in µM
Procedure, shortened: as §1

[4] = 50% growth inhibition, RPMI 1640 + 2% glucose, 37 °C, 20 h, OD600
[5] = 90% growth inhibition, RPMI 1640 + 2% glucose, 37 °C, 20 h, OD600
[6] = MHB, 37 °C, 20 h, OD600, min. three biological repeats
[7] = 50% growth inhibition, RPMI 1640 + 2% glucose, 37 °C, 20 h
[8] = 90% growth inhibition, RPMI 1640 + 2% glucose, 37 °C, 20 h

CC(C)C[C@H](NC(=O)[C@H](CCCCN)NC(=O)[C@H](CCCCN)NC(=O)[C@H](C)NC(=O)[C@H](CC(C)C)NC(=O)[C@H](CCCCN)NC(=O)[C@H](CO)NC(=O)[C@H](CCCCN)NC(=O)[C@H](Cc1c[nH]c2ccccc12)NC(=O)[C@H](C)NC(=O)[C@H](CCCCN)NC(=O)[C@H](CCCCN)NC(=O)[C@H](CC(C)C)NC(=O)[C@H](Cc1ccccc1)NC(=O)[C@H](CO)NC(=O)CN)C(N)=O [PS-PB-16a] (H-GSFLKKAWKSKLAKKL-NH2)
17 µM: Modal MIC [2] | Modal MIC (A. baumannii AYE)
67.8 µM: Modal MIC (P. aeruginosa NCTC 13437; shown in µM)
33.9 µM: Modal MIC (P. aeruginosa PAO1) | Modal MIC (E. coli LEC001)
> 128 µg/mL: Modal MIC50 (C. auris TDG 1912; [4]) | Modal MIC90 (C. auris TDG 1912; [5]) | Modal MIC (S. aureus (MRSA) USA300; [6]) | Modal MIC [1, 6] | Modal MIC (S. aureus (MRSA) 1199B; [6]) | Modal MIC (K. pneumoniae NCTC 13368; [6]) | Modal MIC (K. pneumoniae M6; [6]) | Modal MIC50 (C. glabrata NCPF 8018; [7]) | Modal MIC90 (C. glabrata NCPF 8018; [8]) | Modal MIC50 (C. krusei NCPF 3876; [7]) | Modal MIC90 (C. krusei NCPF 3876; [8]) | Modal MIC50 [3, 7] | Modal MIC90 [3, 8] | Modal MIC50 (C. tropicalis NCPF 8760; [7]) | Modal MIC90 (C. tropicalis NCPF 8760; [8]) | Modal MIC50 (C. albicans NCPF 3281; [7]) | Modal MIC90 (C. albicans NCPF 3281; [8])
> 67.8 µM: Modal MIC50 (C. auris TDG 1912; shown in µM) | Modal MIC90 (C. auris TDG 1912; shown in µM) | Modal MIC (S. aureus (MRSA) USA300; shown in µM) | Modal MIC ([1]; shown in µM) | Modal MIC (S. aureus (MRSA) 1199B; shown in µM) | Modal MIC (K. pneumoniae NCTC 13368; shown in µM) | Modal MIC (K. pneumoniae M6; shown in µM) | Modal MIC50 (C. glabrata NCPF 8018; shown in µM) | Modal MIC90 (C. glabrata NCPF 8018; shown in µM) | Modal MIC50 (C. krusei NCPF 3876; shown in µM) | Modal MIC90 (C. krusei NCPF 3876; shown in µM) | Modal MIC50 ([3]; shown in µM) | Modal MIC90 ([3]; shown in µM) | Modal MIC50 (C. tropicalis NCPF 8760; shown in µM) | Modal MIC90 (C. tropicalis NCPF 8760; shown in µM) | Modal MIC50 (C. albicans NCPF 3281; shown in µM) | Modal MIC90 (C. albicans NCPF 3281; shown in µM)
8.5 µM: Modal MIC (A. baumannii ATCC 17978) | Modal MIC (E. coli NCTC 12923)

CC(C)C[C@H](NC(=O)[C@H](CCCCN)NC(=O)[C@H](CO)NC(=O)[C@H](CCCCN)NC(=O)[C@H](Cc1c[nH]c2ccccc12)NC(=O)[C@H](C)NC(=O)[C@H](CCCCN)NC(=O)[C@H](CCCCN)NC(=O)[C@H](CC(C)C)NC(=O)[C@H](Cc1ccccc1)NC(=O)[C@H](CO)NC(=O)CN)C(=O)N[C@@H](C)C(=O)N[C@@H](CCCCN)C(=O)N[C@@H](CCCCN)C(=O)N[C@@H](CC(C)C)C(=O)N[C@@H](CCCNC(=N)N)C(=O)N[C@@H](C)C(=O)N[C@@H](CCCCN)C(=O)NCC(N)=O [PS-PB-20a] (H-GSFLKKAWKSKLAKKLRAKG-NH2)
> 128 µg/mL: Modal MIC50 (C. auris TDG 1912; [4]) | Modal MIC90 (C. auris TDG 1912; [5]) | Modal MIC (P. aeruginosa NCTC 13437; [6]) | Modal MIC (S. aureus (MRSA) USA300; [6]) | Modal MIC [1, 6] | Modal MIC (S. aureus (MRSA) 1199B; [6]) | Modal MIC (K. pneumoniae NCTC 13368; [6]) | Modal MIC (K. pneumoniae M6; [6]) | Modal MIC50 (C. glabrata NCPF 8018; [7]) | Modal MIC90 (C. glabrata NCPF 8018; [8]) | Modal MIC90 (C. krusei NCPF 3876; [8]) | Modal MIC50 [3, 7] | Modal MIC90 [3, 8] | Modal MIC50 (C. albicans NCPF 3281; [7]) | Modal MIC90 (C. albicans NCPF 3281; [8])
3.5 µM: Modal MIC [2] | Modal MIC (A. baumannii ATCC 17978)
13.9 µM: Modal MIC (A. baumannii AYE) | Modal MIC (E. coli NCTC 12923)
27.8 µM: Modal MIC50 (C. tropicalis NCPF 8760; shown in µM) | Modal MIC90 (C. tropicalis NCPF 8760; shown in µM) | Modal MIC (E. coli LEC001)
> 55.7 µM: Modal MIC50 (C. auris TDG 1912; shown in µM) | Modal MIC90 (C. auris TDG 1912; shown in µM) | Modal MIC (P. aeruginosa NCTC 13437; shown in µM) | Modal MIC (S. aureus (MRSA) USA300; shown in µM) | Modal MIC ([1]; shown in µM) | Modal MIC (S. aureus (MRSA) 1199B; shown in µM) | Modal MIC (K. pneumoniae NCTC 13368; shown in µM) | Modal MIC (K. pneumoniae M6; shown in µM) | Modal MIC50 (C. glabrata NCPF 8018; shown in µM) | Modal MIC90 (C. glabrata NCPF 8018; shown in µM) | Modal MIC90 (C. krusei NCPF 3876; shown in µM) | Modal MIC50 ([3]; shown in µM) | Modal MIC90 ([3]; shown in µM) | Modal MIC50 (C. albicans NCPF 3281; shown in µM) | Modal MIC90 (C. albicans NCPF 3281; shown in µM)
55.7 µM: Modal MIC (P. aeruginosa PAO1) | Modal MIC50 (C. krusei NCPF 3876; shown in µM)
